According to publication PMC5218480 (PLoS ONE, 2017):

Tested on: MV-4-11 cells
Assay: Gene expression microarray analysis (Affymetrix PrimeView) and GSEA
Format: cell-based, human
Parameters: RFU PODN (11730768_x_at) / Fold change /veh PODN (11730768_x_at) / RFU LINC00158 (11744669_a_at) / Fold change /veh LINC00158 (11744669_a_at) / RFU DUSP10 (11751237_a_at) / Fold change /veh DUSP10 (11751237_a_at) / RFU ID3 (11757404_x_at) / Fold change /veh ID3 (11757404_x_at) / RFU PLEKHG5 (11737974_s_at) / Fold change /veh PLEKHG5 (11737974_s_at) / RFU LRRC4B (11730491_at) / Fold change /veh LRRC4B (11730491_at) / RFU GIMAP4 (11747438_a_at) / Fold change /veh GIMAP4 (11747438_a_at) / RFU KRT8 (11758183_x_at) / Fold change /veh KRT8 (11758183_x_at) / RFU CNN1 (11734310_a_at) / Fold change /veh CNN1 (11734310_a_at) / RFU VPS37D (11726825_at) / Fold change /veh VPS37D (11726825_at) / RFU C10orf10 (11716522_x_at) / Fold change /veh C10orf10 (11716522_x_at) / RFU KIR2DL2 /// KIR2DL4 /// KIR2DL5A /// KIR2DL5B /// KIR2DS1 /// KIR2DS2 /// KIR2DS3 /// KIR2DS4 /// KIR3DL3 /// KIR3DL3 /// KIR3DS1 (11738374_at) / Fold change /veh KIR2DL2 /// KIR2DL4 /// KIR2DL5A /// KIR2DL5B /// KIR2DS1 /// KIR2DS2 /// KIR2DS3 /// KIR2DS4 /// KIR3DL3 /// KIR3DL3 /// KIR3DS1 (11738374_at) / RFU C1QL1 (11718748_at) / Fold change /veh C1QL1 (11718748_at) / RFU TMPRSS4 (11747572_a_at) / Fold change /veh TMPRSS4 (11747572_a_at) / RFU HAMP (11756126_x_at) / Fold change /veh HAMP (11756126_x_at) / RFU RNFT2 (11725882_a_at) / Fold change /veh RNFT2 (11725882_a_at) / RFU NR4A2 (11747474_a_at) / Fold change /veh NR4A2 (11747474_a_at) / RFU ABCC12 (11746883_a_at) / Fold change /veh ABCC12 (11746883_a_at) / RFU TMEM136 (11760407_x_at) / Fold change /veh TMEM136 (11760407_x_at) / RFU CLDN22 /// WWC2 (11732394_at) / Fold change /veh CLDN22 /// WWC2 (11732394_at) / RFU HLA-DPB1 (11760878_x_at) / Fold change /veh HLA-DPB1 (11760878_x_at) / RFU SPINT1 (11716480_a_at) / Fold change /veh SPINT1 (11716480_a_at) / RFU GAP43 (11754022_s_at) / Fold change /veh GAP43 (11754022_s_at) / RFU A4GNT (11735810_at) / Fold change /veh A4GNT (11735810_at) / RFU PRB3 (11715151_x_at) / Fold change /veh PRB3 (11715151_x_at) / RFU TUBB4B (11761932_at) / Fold change /veh TUBB4B (11761932_at) / RFU CAPN14 (11732068_a_at) / Fold change /veh CAPN14 (11732068_a_at) / RFU TMCC2 (11721928_a_at) / Fold change /veh TMCC2 (11721928_a_at) / RFU IRGQ (11745062_a_at) / Fold change /veh IRGQ (11745062_a_at) / RFU FAM174B (11720279_a_at) / Fold change /veh FAM174B (11720279_a_at) / RFU TMPRSS4 (11748680_a_at) / Fold change /veh TMPRSS4 (11748680_a_at) / RFU FAM212B (11763350_a_at) / Fold change /veh FAM212B (11763350_a_at) / RFU PLEKHG5 (11743358_a_at) / Fold change /veh PLEKHG5 (11743358_a_at) / RFU ZSCAN30 (11745921_a_at) / Fold change /veh ZSCAN30 (11745921_a_at) / RFU CMKLR1 (11741424_a_at) / Fold change /veh CMKLR1 (11741424_a_at) / RFU LOC101060620 /// MAPK8IP1 (11723275_at) / Fold change /veh LOC101060620 /// MAPK8IP1 (11723275_at) / RFU SPTSSB (11747773_x_at) / Fold change /veh SPTSSB (11747773_x_at) / RFU PRSS12 (11739890_at) / Fold change /veh PRSS12 (11739890_at) / RFU BIN1 (11741810_x_at) / Fold change /veh BIN1 (11741810_x_at) / RFU WNT11 (11732464_a_at) / Fold change /veh WNT11 (11732464_a_at) / RFU C10orf10 (11716521_a_at) / Fold change /veh C10orf10 (11716521_a_at) / RFU C5orf56 (11738089_at) / Fold change /veh C5orf56 (11738089_at) / RFU CYB561 (11721691_x_at) / Fold change /veh CYB561 (11721691_x_at) / RFU ANKRD19P (11752326_a_at) / Fold change /veh ANKRD19P (11752326_a_at) / RFU OR2T12 /// OR2T33 /// OR2T8 (11738714_s_at) / Fold change /veh OR2T12 /// OR2T33 /// OR2T8 (11738714_s_at) / RFU VCAN (11748164_a_at) / Fold change /veh VCAN (11748164_a_at) / RFU JSRP1 (11732532_at) / Fold change /veh JSRP1 (11732532_at) / RFU KRTAP10-11 (11738290_x_at) / Fold change /veh KRTAP10-11 (11738290_x_at) / RFU MYO3A (11730013_a_at) / Fold change /veh MYO3A (11730013_a_at) / RFU EBF3 (11725865_a_at) / Fold change /veh EBF3 (11725865_a_at) / RFU CAMK2N1 (11719241_x_at) / Fold change /veh CAMK2N1 (11719241_x_at) / RFU C5orf56 (11738088_a_at) / Fold change /veh C5orf56 (11738088_a_at) / RFU OLFML3 (11715873_a_at) / Fold change /veh OLFML3 (11715873_a_at) / RFU LOC100653217 /// NTM (11731650_a_at) / Fold change /veh LOC100653217 /// NTM (11731650_a_at) / RFU MAPK11 (11762145_a_at) / Fold change /veh MAPK11 (11762145_a_at) / RFU FIZ1 (11724087_x_at) / Fold change /veh FIZ1 (11724087_x_at) / RFU OASL (11726364_x_at) / Fold change /veh OASL (11726364_x_at) / RFU SOX15 (11748057_x_at) / Fold change /veh SOX15 (11748057_x_at) / RFU CD79A (11719716_a_at) / Fold change /veh CD79A (11719716_a_at) / RFU HIST1H1D (11736915_at) / Fold change /veh HIST1H1D (11736915_at) / RFU CASKIN2 (11723855_a_at) / Fold change /veh CASKIN2 (11723855_a_at) / RFU LOC730098 (11760151_x_at) / Fold change /veh LOC730098 (11760151_x_at) / RFU OR4N2 (11742367_at) / Fold change /veh OR4N2 (11742367_at) / RFU PRRT2 (11749266_a_at) / Fold change /veh PRRT2 (11749266_a_at) / RFU SNX32 (11753110_a_at) / Fold change /veh SNX32 (11753110_a_at) / RFU CDHR5 (11726645_a_at) / Fold change /veh CDHR5 (11726645_a_at) / RFU RCAN1 (11760418_a_at) / Fold change /veh RCAN1 (11760418_a_at) / RFU FAM167A (11723789_a_at) / Fold change /veh FAM167A (11723789_a_at) / RFU FAM26E (11764081_at) / Fold change /veh FAM26E (11764081_at) / RFU ISYNA1 (11749810_s_at) / Fold change /veh ISYNA1 (11749810_s_at) / RFU ACY1 (11761880_at) / Fold change /veh ACY1 (11761880_at) / RFU 11764098_at / Fold change /veh 11764098_at / RFU SAMD14 (11745864_x_at) / Fold change /veh SAMD14 (11745864_x_at) / RFU NPB (11741838_a_at) / Fold change /veh NPB (11741838_a_at) / RFU TMPRSS6 (11731388_a_at) / Fold change /veh TMPRSS6 (11731388_a_at) / RFU KRTAP10-2 (11738614_at) / Fold change /veh KRTAP10-2 (11738614_at) / RFU ARHGAP8 /// PRR5-ARHGAP8 (11727945_x_at) / Fold change /veh ARHGAP8 /// PRR5-ARHGAP8 (11727945_x_at) / RFU KRTAP5-7 /// NADSYN1 (11734609_at) / Fold change /veh KRTAP5-7 /// NADSYN1 (11734609_at) / RFU RASL12 (11751679_a_at) / Fold change /veh RASL12 (11751679_a_at) / RFU CDKN2B (11736163_a_at) / Fold change /veh CDKN2B (11736163_a_at) / RFU PRF1 (11729649_at) / Fold change /veh PRF1 (11729649_at) / RFU, ZNF638 /// ZNF638-IT1 / Fold change vs veh, ZNF638 /// ZNF638-IT1 / RFU, PANK3 / Fold change vs veh, PANK3 / RFU, SH3YL1 / Fold change vs veh, SH3YL1 / RFU, ZEB2 / Fold change vs veh, ZEB2 / RFU, NRIP1 / Fold change vs veh, NRIP1 / RFU, PTTG1IP / Fold change vs veh, PTTG1IP / RFU, CAPN2 / Fold change vs veh, CAPN2 / RFU, MED14 / Fold change vs veh, MED14 / RFU, SNORA58 / Fold change vs veh, SNORA58 / RFU, C1orf63 / Fold change vs veh, C1orf63 / RFU, LRRFIP1 / Fold change vs veh, LRRFIP1 / RFU, NDUFAF7 / Fold change vs veh, NDUFAF7 / RFU, SLC12A2 / Fold change vs veh, SLC12A2 / RFU, IBTK / Fold change vs veh, IBTK / RFU, ESF1 / Fold change vs veh, ESF1 / Fold change vs veh, TMEM50B / RFU, TAOK1 / Fold change vs veh, TAOK1 / RFU, ACBD3 / Fold change vs veh, ACBD3 / RFU, TMA16 / Fold change vs veh, TMA16 / RFU, RWDD3 / Fold change vs veh, RWDD3 / RFU, BCAT1 / Fold change vs veh, BCAT1 / RFU, EDEM3 / Fold change vs veh, EDEM3 / RFU, TMEM33 / Fold change vs veh, TMEM33 / RFU, WDR75 / Fold change vs veh, WDR75 / RFU, AHCTF1 / Fold change vs veh, AHCTF1 / RFU, TFRC / Fold change vs veh, TFRC / RFU, ZDHHC17 / Fold change vs veh, ZDHHC17 / RFU, NOM1 / Fold change vs veh, NOM1 / RFU, ARL8B / Fold change vs veh, ARL8B / RFU, ZBTB11 / Fold change vs veh, ZBTB11 / RFU, TAMM41 / Fold change vs veh, TAMM41 / RFU, KIAA1704 /// LOC100996395 / Fold change vs veh, KIAA1704 /// LOC100996395 / RFU, ING1 / Fold change vs veh, ING1 / RFU, TRMT61B / Fold change vs veh, TRMT61B / RFU, FUBP3 / Fold change vs veh, FUBP3 / RFU, TP53 / Fold change vs veh, TP53 / RFU, TNKS2 / Fold change vs veh, TNKS2 / RFU, ZFP14 / Fold change vs veh, ZFP14 / RFU, ACTR2 / Fold change vs veh, ACTR2 / RFU, PPP3R1 / Fold change vs veh, PPP3R1 / RFU, PIK3R1 / Fold change vs veh, PIK3R1 / RFU, HNRNPA1 / Fold change vs veh, HNRNPA1 / RFU, RNF170 / Fold change vs veh, RNF170 / RFU, ZNF28 / Fold change vs veh, ZNF28 / RFU, RNGTT / Fold change vs veh, RNGTT / RFU, OGT / Fold change vs veh, OGT / RFU, BRD1 / Fold change vs veh, BRD1 / RFU, MARS / Fold change vs veh, MARS / RFU, ZNF655 / Fold change vs veh, ZNF655 / RFU, FAHD1 / Fold change vs veh, FAHD1 / RFU, BDP1 / Fold change vs veh, BDP1 / RFU, LRRCC1 / Fold change vs veh, LRRCC1 / RFU, ARID1A / Fold change vs veh, ARID1A / RFU, ZNF146 / Fold change vs veh, ZNF146 / RFU, ZNF330 / Fold change vs veh, ZNF330 / RFU, GPN3 / Fold change vs veh, GPN3 / RFU, C9orf123 / Fold change vs veh, C9orf123 / RFU, N4BP2L2 / Fold change vs veh, N4BP2L2 / RFU, ARFIP1 / Fold change vs veh, ARFIP1 / RFU, FAM179B / Fold change vs veh, FAM179B / RFU, BCL10 / Fold change vs veh, BCL10 / RFU, UHRF1BP1L / Fold change vs veh, UHRF1BP1L / RFU, BET1 / Fold change vs veh, BET1 / RFU, CNOT2 / Fold change vs veh, CNOT2 / RFU, ZNF268 / Fold change vs veh, ZNF268 / Fold change vs veh, ZNF507 / RFU, DGCR2 / Fold change vs veh, DGCR2 / RFU, WDSUB1 / Fold change vs veh, WDSUB1 / Fold change vs veh, HSP90B1 /// MIR3652 / RFU, ADSS / Fold change vs veh, ADSS / RFU, GK / Fold change vs veh, GK / RFU, ZNF148 / Fold change vs veh, ZNF148 / RFU, TAF9 / Fold change vs veh, TAF9 / RFU, SLC1A5 / Fold change vs veh, SLC1A5 / RFU, SLMO2 / Fold change vs veh, SLMO2 / RFU, ABCC4 / Fold change vs veh, ABCC4 / RFU, LOC101060439 /// RAP1B / Fold change vs veh, LOC101060439 /// RAP1B / RFU, RFX7 / Fold change vs veh, RFX7 / RFU, GTPBP10 / Fold change vs veh, GTPBP10 / RFU, CNEP1R1 / Fold change vs veh, CNEP1R1 / RFU, BIVM-ERCC5 /// ERCC5 / Fold change vs veh, BIVM-ERCC5 /// ERCC5 / RFU, ILF3 / Fold change vs veh, ILF3 / RFU 11762660_at / Fold change /veh 11762660_at / RFU VCAN (11757783_s_at) / Fold change /veh VCAN (11757783_s_at) / RFU DDX43 (11728927_at) / Fold change /veh DDX43 (11728927_at) / RFU KRT8 (11758188_x_at) / Fold change /veh KRT8 (11758188_x_at) / RFU NKD1 (11759106_at) / Fold change /veh NKD1 (11759106_at) / RFU SRD5A1 (11742802_a_at) / Fold change /veh SRD5A1 (11742802_a_at) / RFU TPSAB1 /// TPSB2 (11721975_s_at) / Fold change /veh TPSAB1 /// TPSB2 (11721975_s_at) / RFU GSTM3 (11746129_a_at) / Fold change /veh GSTM3 (11746129_a_at) / RFU IL23R (11737362_x_at) / Fold change /veh IL23R (11737362_x_at) / RFU TMEM51 (11727254_a_at) / Fold change /veh TMEM51 (11727254_a_at) / RFU PIWIL2 (11732686_x_at) / Fold change /veh PIWIL2 (11732686_x_at) / RFU ORM1 (11744905_x_at) / Fold change /veh ORM1 (11744905_x_at) / RFU CCDC152 (11743942_at) / Fold change /veh CCDC152 (11743942_at) / RFU ECM1 (11717891_a_at) / Fold change /veh ECM1 (11717891_a_at) / RFU IL23R (11748794_a_at) / Fold change /veh IL23R (11748794_a_at) / RFU TNFAIP8L3 (11732012_x_at) / Fold change /veh TNFAIP8L3 (11732012_x_at) / RFU MBOAT4 (11741988_at) / Fold change /veh MBOAT4 (11741988_at) / RFU 11764193_at / Fold change /veh 11764193_at / RFU TMEM53 (11763286_at) / Fold change /veh TMEM53 (11763286_at) / RFU MAGEB2 (11727129_at) / Fold change /veh MAGEB2 (11727129_at) / RFU TMEM200A (11744735_a_at) / Fold change /veh TMEM200A (11744735_a_at) / RFU CCDC152 (11751479_a_at) / Fold change /veh CCDC152 (11751479_a_at) / RFU FAM211A (11726209_a_at) / Fold change /veh FAM211A (11726209_a_at) / RFU RGS16 (11746705_a_at) / Fold change /veh RGS16 (11746705_a_at) / RFU VCAN (11755009_s_at) / Fold change /veh VCAN (11755009_s_at) / RFU RHOB (11743442_s_at) / Fold change /veh RHOB (11743442_s_at) / RFU RGS16 (11720943_a_at) / Fold change /veh RGS16 (11720943_a_at) / RFU RGS16 (11720944_at) / Fold change /veh RGS16 (11720944_at) / RFU, VPS4B / Fold change vs veh, VPS4B / RFU, CREB1 / Fold change vs veh, CREB1 / RFU, DNAJC13 / Fold change vs veh, DNAJC13 / RFU, GNAQ / Fold change vs veh, GNAQ / RFU, CDK5R1 / Fold change vs veh, CDK5R1 / RFU, ZRANB3 / Fold change vs veh, ZRANB3 / RFU, CUL4A / Fold change vs veh, CUL4A / RFU, CCNY / Fold change vs veh, CCNY / RFU, UFL1 / Fold change vs veh, UFL1 / RFU, COG3 / Fold change vs veh, COG3 / RFU, DIAPH2 / Fold change vs veh, DIAPH2 / RFU, SKA2 / Fold change vs veh, SKA2 / RFU, AFF3 / Fold change vs veh, AFF3 / RFU, LMF1 / Fold change vs veh, LMF1 / RFU, IPO11 / Fold change vs veh, IPO11 / RFU, DFFB / Fold change vs veh, DFFB / RFU, FOXP1 / Fold change vs veh, FOXP1 / RFU, CARD8 / Fold change vs veh, CARD8 / RFU, STRN3 / Fold change vs veh, STRN3 / RFU, ADK / Fold change vs veh, ADK / RFU, RASSF2 / Fold change vs veh, RASSF2 / RFU, WIPF1 / Fold change vs veh, WIPF1 / RFU, LARP1B / Fold change vs veh, LARP1B / RFU, RASA1 / Fold change vs veh, RASA1 / RFU, RB1 / Fold change vs veh, RB1 / RFU, PPFIA1 / Fold change vs veh, PPFIA1 / RFU, MAT2A / Fold change vs veh, MAT2A / RFU, CCT5 / Fold change vs veh, CCT5 / RFU, WDR92 / Fold change vs veh, WDR92 / RFU, CUX1 / Fold change vs veh, CUX1 / RFU, TTC7A / Fold change vs veh, TTC7A / RFU, TMEM135 / Fold change vs veh, TMEM135 / RFU, DEPTOR / Fold change vs veh, DEPTOR / RFU, CPM / Fold change vs veh, CPM / RFU, DNAJB6 / Fold change vs veh, DNAJB6 / RFU, CACNA2D3 / Fold change vs veh, CACNA2D3 / RFU, DTX4 / Fold change vs veh, DTX4 / RFU, TFCP2 / Fold change vs veh, TFCP2 / RFU, GMCL1 /// GMCL1P1 / Fold change vs veh, GMCL1 /// GMCL1P1 / RFU, AEBP2 / Fold change vs veh, AEBP2 / RFU, SNHG1 /// SNORD22 /// SNORD25 /// SNORD26 /// SNORD27 /// SNORD28 /// SNORD29 /// SNORD31 / Fold change vs veh, SNHG1 /// SNORD22 /// SNORD25 /// SNORD26 /// SNORD27 /// SNORD28 /// SNORD29 /// SNORD31 / Fold change (Aza/veh), C12orf56 (ProbeSet 11735607_a_at) / Fold change (ACY-1035/veh), C12orf56 (ProbeSet 11735607_a_at) / Fold change (Aza/veh), FGFR1OP (ProbeSet 11751329_s_at) / Fold change (ACY-1035/veh), FGFR1OP (ProbeSet 11751329_s_at) / Fold change (Aza/veh), VPS36 (ProbeSet 11739960_a_at) / Fold change (ACY-1035/veh), VPS36 (ProbeSet 11739960_a_at) / RFU SYPL1 (11715823_x_at) / Fold change /veh SYPL1 (11715823_x_at) / RFU IGFBP7 (11715501_s_at) / Fold change /veh IGFBP7 (11715501_s_at) / RFU REEP3 (11722064_at) / Fold change /veh REEP3 (11722064_at) / RFU IGLL1 (11728026_x_at) / Fold change /veh IGLL1 (11728026_x_at): dose or concentration left out as unconfirmed
Conditions: ProbeSet 11745260_x_at; LIST B

With `Nc1ncn([C@@H]2O[C@H](CO)[C@@H](O)[C@H]2O)c(=O)n1` [azacitidine] the “RFU, SLC12A2” value was 29.09 RFU.
